Measured values from ChEMBL document CHEMBL5113392, “Novel hybrid pyrrolidinedione-thiazolidinones as potential anticancer agents: Synthesis and biological evaluation” (Eur J Med Chem, 2022).

Tests used:
[1] = tested on: UO-31; experiment: Anticancer activity against human UO-31 cells assessed as inhibition of cell growth at 10 uM incubated for 48 hrs by SRB assay; type: functional; conditions: UO-31, 48 h, values are per cent of control
[2] = Selectivity index, ratio of GI50 for human HaCaT cells to GI50 for human U-251 cells; type: toxicity; conditions: HaCaT cells versus U-251 cells, read-out: RatioGI50
[3] = tested on: Jurkat; experiment: Anticancer activity against human Jurkat cells assessed as cell growth inhibition incubated for 72 hrs by MTT assay; type: functional
[4] = tested on: A549; experiment: Anticancer activity against human A549 cells assessed as cell growth inhibition incubated for 72 hrs by MTT assay; type: functional
[5] = tested on: MCF7; experiment: Anticancer activity against human MCF7 cells assessed as cell growth inhibition incubated for 72 hrs by MTT assay; type: functional
[6] = tested on: MDA-MB-231; experiment: Anticancer activity against human MDA-MB-231 cells assessed as cell growth inhibition incubated for 72 hrs by MTT assay; type: functional
[7] = tested on: HeLa; experiment: Anticancer activity against human HeLa cells assessed as cell growth inhibition incubated for 72 hrs by MTT assay; type: functional
[8] = tested on: HCT-116; experiment: Anticancer activity against human HCT-116 cells assessed as cell growth inhibition incubated for 72 hrs by MTT assay; type: functional
[9] = Anticancer activity against human HCT116-p53-null cells assessed as cell growth inhibition incubated for 72 hrs by MTT assay; type: functional
[10] = tested on: U-251; experiment: Anticancer activity against human U-251 cells assessed as cell growth inhibition incubated for 72 hrs by MTT assay; type: functional
[11] = tested on: SK-OV-3; experiment: Anticancer activity against human SK-OV-3 cells assessed as cell growth inhibition incubated for 72 hrs by MTT assay; type: functional
[12] = Cytotoxicity against human HaCaT cells assessed as cell growth inhibition incubated for 72 hrs by MTT assay; type: toxicity, cell-based
[13] = Selectivity index, ratio of GI50 for human HaCaT cells to GI50 for human Jurkat cells; type: toxicity; conditions: HaCaT cells versus Jurkat cells, read-out: RatioGI50
[14] = Selectivity index, ratio of GI50 for human HaCaT cells to GI50 for human A549 cells; type: toxicity; conditions: HaCaT cells versus A549 cells, read-out: RatioGI50
[15] = Selectivity index, ratio of GI50 for human HaCaT cells to GI50 for human MCF7 cells; type: toxicity; conditions: HaCaT cells versus MCF7 cells, read-out: RatioGI50
[16] = Selectivity index, ratio of GI50 for human HaCaT cells to GI50 for human MDA-MB-231 cells; type: toxicity; conditions: HaCaT cells versus MDA-MB-231 cells, read-out: RatioGI50
[17] = Selectivity index, ratio of GI50 for human HaCaT cells to GI50 for human HeLa cells; type: toxicity; conditions: HaCaT cells versus HeLa cells, read-out: RatioGI50
[18] = Selectivity index, ratio of GI50 for human HaCaT cells to GI50 for human HCT-116 cells; type: toxicity; conditions: HaCaT cells versus HCT-116 cells, read-out: RatioGI50
[19] = Selectivity index, ratio of GI50 for human HaCaT cells to GI50 for human HCT116-p53-null cells; type: toxicity; conditions: HaCaT cells versus HCT116-p53-null cells, read-out: RatioGI50
[20] = Selectivity index, ratio of GI50 for human HaCaT cells to GI50 for human SK-OV-3 cells; type: toxicity; conditions: HaCaT cells versus SK-OV-3 cells, read-out: RatioGI50
[21] = tested on: RPMI-8226; experiment: Anticancer activity against human RPMI-8226 cells assessed as inhibition of cell growth at 10 uM incubated for 48 hrs by SRB assay; type: functional
[22] = tested on: CAKI-1; experiment: Anticancer activity against human CAKI-1 cells assessed as inhibition of cell growth at 10 uM incubated for 48 hrs by SRB assay; type: functional; conditions: CAKI-1, 48 h, values are per cent of control
[23] = tested on: MDA-MB-435; experiment: Anticancer activity against human MDA-MB-435 cells assessed as inhibition of cell growth at 10 uM incubated for 48 hrs by SRB assay; type: functional
[24] = tested on: KB 3-1; experiment: Anticancer activity against human KB 3-1 cells assessed as cell growth inhibition incubated for 72 hrs by MTT assay; type: functional
[25] = Selectivity index, ratio of GI50 for human HaCaT cells to GI50 for human KB 3-1 cells; type: toxicity; conditions: HaCaT cells versus KB 3-1 cells, read-out: RatioGI50
[26] = Cytotoxicity against mitogen activated human peripheral blood lymphocytes assessed as cell growth inhibition incubated for 24 hrs by MTT assay; type: toxicity, cell-based, Lymphocyte
[27] = Cytotoxicity against mitogen activated human peripheral blood lymphocytes assessed as cell growth inhibition incubated for 48 hrs by MTT assay; type: toxicity, cell-based, Lymphocyte
[28] = tested on: Salmon testes DNA; experiment: Displacement of methyl green from salmon sperm DNA at 10 uM measured after 2 hrs by fluorescence plate reader method relative to control; type: nucleic-acid assay; conditions: Salmo salar
[29] = tested on: UACC-62; experiment: Anticancer activity against human UACC-62 cells assessed as inhibition of cell growth at 10 uM incubated for 48 hrs by SRB assay; type: functional
[30] = tested on: MOLT-4; experiment: Anticancer activity against human MOLT-4 cells assessed as inhibition of cell growth at 10 uM incubated for 48 hrs by SRB assay; type: functional
[31] = tested on: LOX IMVI; experiment: Anticancer activity against human LOX IMVI cells assessed as inhibition of cell growth at 10 uM incubated for 48 hrs by SRB assay; type: functional
[32] = tested on: MCF7; experiment: Anticancer activity against human MCF7 cells assessed as inhibition of cell growth at 10 uM incubated for 48 hrs by SRB assay; type: functional; conditions: MCF7, 48 h, values are per cent of control

Structure (SMILES)	selectivity ratio [2]	GI50 [3]	GI50 [4]	GI50 [5]	GI50 [6]	GI50 [7]	GI50 [8]	GI50 [9]	GI50 [10]	GI50 [11]	GI50 at 72 h [12]	selectivity ratio [13]	selectivity ratio [14]	selectivity ratio [15]	selectivity ratio [16]	selectivity ratio [17]	selectivity ratio [18]	selectivity ratio [19]	selectivity ratio [20]	also measured
O=C1CC(N2C(=O)CSC2=S)C(=O)N1c1ccc(Cl)cc1 (stereo not given)	0.98	88.4 µM	> 100 µM	> 100 µM	> 100 µM	> 100 µM	> 100 µM	> 100 µM	> 100 µM	> 100 µM	97.7 µM	1.1	0.98	0.98	0.98	1	0.98	0.98	0.98	growth, % of control at 10 µM [1]: 76.3%
O=C1Nc2ccccc2/C1=C1/SC(=S)N(C2CC(=O)N(c3ccc(Cl)cc3)C2=O)C1=O (stereo not given)	1	49.9 µM	> 100 µM	> 100 µM	> 100 µM	> 100 µM	> 100 µM	> 100 µM	> 100 µM	> 100 µM	> 100 µM	2	1	1	1	1	1	1	1	growth, % of control at 10 µM [1]: 68.5%; inhibition at 10 µM [21]: 36.3%
C=CCOc1ccccc1/C=C1\SC(=S)N(C2CC(=O)N(c3ccc(Cl)cc3)C2=O)C1=O (stereo not given)	1.1	53.3 µM	> 100 µM	80.3 µM	98.6 µM	47.5 µM	57.1 µM	9.6 µM	91.2 µM	> 100 µM	> 100 µM	1.88	1	1.25	1.01	2.1	1.75	10.4	1	growth, % of control at 10 µM [22]: 72.2%; inhibition at 10 µM [23]: 68.2%; GI50 [24]: > 100 µM; selectivity ratio [25]: 1; GI50 at 24 h [26]: > 100 µM; GI50 at 48 h [27]: > 100 µM
CC[n+]1c(-c2ccccc2)c2cc(N)ccc2c2ccc(N)cc21																				Activity [28]: 84.1%
C=CCOc1cccc(/C=C2\SC(=S)N(C3CC(=O)N(c4ccc(Br)cc4)C3=O)C2=O)c1 (stereo not given)																				inhibition at 10 µM [29]: 86.8%
CCN(CC)c1ccc(/C=C2\SC(=S)N(C3CC(=O)N(c4ccc(Cl)cc4)C3=O)C2=O)cc1 (stereo not given)																				inhibition at 10 µM [29]: 73.3%; inhibition at 10 µM [30]: 76%
O=C1CC(N2C(=O)CSC2=S)C(=O)N1c1ccc(O)cc1 (stereo not given)	1	23.4 µM	> 100 µM	> 100 µM	> 100 µM	> 100 µM	> 100 µM	> 100 µM	> 100 µM	60.8 µM	> 100 µM	4.27	1	1	1	1	1	1	1.64	
O=C1Nc2ccc(Cl)cc2/C1=C1/SC(=S)N(C2CC(=O)N(c3ccc(Cl)cc3)C2=O)C1=O (stereo not given)	1	6.1 µM	> 100 µM	> 100 µM	> 100 µM	58 µM	> 100 µM	> 100 µM	> 100 µM	> 100 µM	> 100 µM	16.4	1	1	1	1.72	1	1	1	
C=CCOc1cccc(/C=C2\SC(=S)N(C3CC(=O)N(c4ccc(Cl)cc4)C3=O)C2=O)c1 (stereo not given)	1	74 µM	> 100 µM	98 µM	> 100 µM	> 100 µM	> 100 µM	> 100 µM	> 100 µM	> 100 µM	> 100 µM	1.35	1	1.02	1	1	1	1	1	inhibition at 10 µM [31]: 14.2%
O=C1Nc2ccccc2/C1=C1/SC(=S)N(C2CC(=O)N(c3ccc(Br)cc3)C2=O)C1=O (stereo not given)	1	21.5 µM	> 100 µM	> 100 µM	> 100 µM	> 100 µM	> 100 µM	> 100 µM	> 100 µM	> 100 µM	> 100 µM	4.65	1	1	1	1	1	1	1	inhibition at 10 µM [31]: 33.8%; inhibition at 10 µM [21]: 50%; growth, % of control at 10 µM [32]: 45.7%
